According to US20160272626A1, “PYRAZINE DERIVATIVES” (HOFFMANN-LA ROCHE INC., priority 2012, published 2016):
pKd: −log10 of the molar value.

Legend:
[1] = target: T1, mouse TAAR1 (Mus musculus, UniProt Q923Y8); experiment: Radioligand binding assay on mouse TAAR1; details: for Ki: mouse TAAR1, HEK-293 membranes, first value of cell mouse/rat
T1 construct: expressed in transfected cells; membrane preparation
Protocol: (§1) For the construction of expression plasmids the coding sequences of human, rat and mouse TAAR 1 were amplified from genomic DNA essentially as described by Lindemann et al.. The Expand High Fidelity PCR System (Roche Diagnostics) was used with 1.5 mM Mg^2+ and purified PCR products were cloned into pCR2.1-TOPO cloning vector (Invitrogen) following the instructions of the manufacturer. PCR products were subcloned into the pIRESneo2 vector (BD Clontech, Palo Alto, Calif.), and expression vectors were sequence verified before introduction in cell lines.
(§2) HEK293 cells (ATCC # CRL-1573) were cultured essentially as described by Lindemann et al. (2005). For the generation of stably transfected cell lines HEK293 cells were transfected with the pIRESneo2 expression plasmids containing the TAAR coding sequences (described above) with Lipofectamine 2000 (Invitrogen) according to the instructions of the manufacturer, and 24 hrs post transfection the culture medium was supplemented with 1 mg/ml G418 (Sigma, Buchs, Switzerland). After a culture period of about 10 d clones were isolated, expanded and tested for responsiveness to trace amines (all compounds purchased from Sigma) with the cAMP Biotrak Enzyme immunoassay (EIA) System (Amersham) following the non-acetylation EIA procedure provided by the manufacturer.
Radioligand Binding Assay on Mouse TAAR1
(§3) Membrane Preparation and Radioligand Binding.
HEK-293 cells stably expressing mouse TAAR1 were maintained at 37° C. and 5% CO2 in DMEM high glucose medium, containing fetal calf serum (10%, heat inactivated for 30 min at 56° C.), penicillin/streptomycin (1%), and 375 μg/ml geneticin (Gibco). Cells were released from culture flasks using trypsin/EDTA, harvested, washed twice with ice-cold PBS (without Ca^2+ and Mg^2+), pelleted at 1,000 rpm for 5 min at 4° C., frozen and stored at −80° C. Frozen pellets were suspended in 20 ml HEPES-NaOH (20 mM, pH 7.4) containing 10 mM EDTA and homogenized with a Polytron (PT 6000, Kinematica) at 14,000 rpm for 20 s. The homogenate was centrifuged at 48,000×g for 30 min at 4° C. Subsequently, the supernatant was removed and discarded, and the pellet resuspended in 20 ml HEPES-NaOH (20 mM, pH 7.4) containing 0.1 mM EDTA using the Polytron (20 s at 14,000 rpm). This procedure was repeated and the final pellet resuspended in HEPES-NaOH containing 0.1 mM EDTA and homogenized using the Polytron. Typically, aliquots of 2 ml membrane portions were stored at −80° C. With each new membrane batch the dissociation constant (Kd) was determined via a saturation curve. The TAAR1 radioligand ^3[H]—(S)-4-[(ethyl-phenyl-amino)-methyl]-4,5-dihydro-oxazol-2-ylamine (described in WO 2008/098857) was used at a concentration equal to the calculated Kd value, that was usually around 0.7 nM, resulting in the binding of approximately 0.5% of the radioligand and a specific binding representing approximately 70% of the total binding. Nonspecific binding was defined as the amount of ^3[H]—(S)-4-[(ethyl-phenyl-amino)-methyl]-4,5-dihydro-oxazol-2-ylamine bound in the presence of 10 μM unlabeled ligand. All compounds were tested at a broad range of concentrations (10 pM to 10 μM) in duplicates. The test compounds (20 μl/well) were transferred into a 96 deep well plate (TreffLab), and 180 μl of HEPES-NaOH (20 mM, pH 7.4) containing MgCl2 (10 mM) and CaCl2 (2 mM) (binding buffer), 300 μl of the radioligand ^3[H]—(S)-4-[(ethyl-phenyl-amino)-methyl]-4,5-dihydro-oxazol-2-ylamine at a concentration of 3.3×Kd in nM and 500 μl of the membranes (resuspended at 60 μg protein per ml) added. The 96 deep well plates were incubated for 1 hr at 4° C. Incubations were terminated by rapid filtration through Unifilter-96 plates (Packard Instrument Company) and glass filters GF/C (Perkin Elmer) presoaked for 1 hr in polyethylenimine (0.3%) and washed 3 times with 1 ml of cold binding buffer. […]

[2] = target: T2, rat TAAR1 (Rattus norvegicus, UniProt Q923Y9); experiment: Radioligand binding assay on rat TAAR1; details: for Ki: rat TAAR1, HEK-293 membranes, second value of cell mouse/rat
T2 construct: expressed in transfected cells; membrane preparation
Protocol: as §1, §2
Radioligand Binding Assay on Rat TAAR1
as §3
HEK-293 cells stably expressing rat TAAR1 were maintained at 37° C. and 5% CO2 in DMEM high glucose medium, containing fetal calf serum (10%, heat inactivated for 30 min at 56° C.), penicillin/streptomycin (1%), and 375 μg/ml geneticin (Gibco). Cells were released from culture flasks using trypsin/EDTA, harvested, washed twice with ice-cold PBS (without Ca^2+ and Mg^2+), pelleted at 1,000 rpm for 5 min at 4° C., frozen and stored at −80° C. Frozen pellets were suspended in 20 ml HEPES-NaOH (20 mM, pH 7.4) containing 10 mM EDTA and homogenized with a Polytron (PT 6000, Kinematica) at 14,000 rpm for 20 s. The homogenate was centrifuged at 48,000×g for 30 min at 4° C. Subsequently, the supernatant was removed and discarded, and the pellet resuspended in 20 ml HEPES-NaOH (20 mM, pH 7.4) containing 0.1 mM EDTA using the Polytron (20 s at 14,000 rpm). This procedure was repeated and the final pellet resuspended in HEPES-NaOH containing 0.1 mM EDTA and homogenized using the Polytron. Typically, aliquots of 2 ml membrane portions were stored at −80° C. With each new membrane batch the dissociation constant (Kd) was determined via a saturation curve. […] Nonspecific binding was defined as the amount of ^3[H]—(S)-4-[(ethyl-phenyl-amino)-methyl]-4,5-dihydro-oxazol-2-ylamine bound in the presence of 10 μM unlabeled ligand. All compounds were tested at a broad range of concentrations (10 pM to 10 μM) in duplicates. The test compounds (20 μl/well) were transferred into a 96 deep well plate (TreffLab), and 180 μl of HEPES-NaOH (20 mM, pH 7.4) containing MgCl2 (10 mM) and CaCl2 (2 mM) (binding buffer), 300 μl of the radioligand ^3[H]—(S)-4-[(ethyl-phenyl-amino)-methyl]-4,5-dihydro-oxazol-2-ylamine at a concentration of 3.3×Kd in nM and 500 μl of the membranes (resuspended at 50 μg protein per ml) added. The 96 deep well plates were incubated for 1 hr at 4° C. Incubations were terminated by rapid filtration through Unifilter-96 plates (Packard Instrument Company) and glass filters GF/C (Perkin Elmer) presoaked for 1 hr in polyethylenimine (0.3%) and washed 3 times with 1 ml of cold binding buffer. After addition of 45 μl of Microscint 40 (PerkinElmer) the Unifilter-96 plate was sealed and after 1 hr the […] counted using a TopCount Microplate Scintillation Counter (Packard Instrument Company).

T1 sequence (Q923Y8 whole entry): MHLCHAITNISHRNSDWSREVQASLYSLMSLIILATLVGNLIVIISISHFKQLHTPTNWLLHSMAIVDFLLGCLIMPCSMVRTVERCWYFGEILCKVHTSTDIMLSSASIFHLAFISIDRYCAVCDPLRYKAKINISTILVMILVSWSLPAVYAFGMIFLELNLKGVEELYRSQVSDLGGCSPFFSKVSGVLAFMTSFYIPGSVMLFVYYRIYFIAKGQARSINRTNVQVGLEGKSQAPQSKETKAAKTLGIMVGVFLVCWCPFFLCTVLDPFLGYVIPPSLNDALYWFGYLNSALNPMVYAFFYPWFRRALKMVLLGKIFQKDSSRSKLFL
T2 sequence (Q923Y9 whole entry): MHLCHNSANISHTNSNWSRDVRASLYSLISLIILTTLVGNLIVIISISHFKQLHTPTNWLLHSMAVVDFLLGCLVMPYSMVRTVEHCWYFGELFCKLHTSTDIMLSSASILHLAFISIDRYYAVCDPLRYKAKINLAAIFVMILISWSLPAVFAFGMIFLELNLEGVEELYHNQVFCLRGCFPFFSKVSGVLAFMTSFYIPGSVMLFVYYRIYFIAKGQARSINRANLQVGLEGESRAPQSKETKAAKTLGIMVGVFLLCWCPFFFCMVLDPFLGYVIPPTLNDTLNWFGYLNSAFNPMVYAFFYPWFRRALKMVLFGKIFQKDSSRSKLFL

CC(C)c1cncc(C(=O)Nc2ccc([C@H]3CNCCO3)c(F)c2)n1 [Example 21, 6-Isopropyl-pyrazine-2-carboxylic acid ((S)-3-fluoro-4-morpholin-2-yl-phenyl)-amide]
Ki [1]: 0.0181 µM
Ki [2]: 0.0849 µM

CC(C)c1cncc(C(=O)Nc2ccc([C@H]3CNCCO3)cc2F)n1 [Example 22, 6-Isopropyl-pyrazine-2-carboxylic acid ((S)-2-fluoro-4-morpholin-2-yl-phenyl)-amide]
Ki [1]: 0.0522 µM
Ki [2]: 0.391 µM

O=C(Nc1ccc([C@H]2CNCCO2)cc1F)c1cnc(OCC(F)(F)F)cn1 [Example 23, (S)—N-(2-Fluoro-4-(morpholin-2-yl)phenyl)-5-(2,2,2-trifluoroethoxy)pyrazine-2-carboxamide]
Ki [1]: 0.0046 µM
Ki [2]: 0.0881 µM

O=C(Nc1ccc([C@H]2CNCCO2)c(F)c1)c1cnc(OCC(F)(F)F)cn1 [Example 24, (S)—N-(3-Fluoro-4-(morpholin-2-yl)phenyl)-5-(2,2,2-trifluoroethoxy)pyrazine-2-carboxamide]
Ki [1]: 0.0042 µM
Ki [2]: 0.0202 µM

O=C(Nc1ccc([C@H]2CNCCO2)cc1F)c1cncc(OCC(F)(F)F)n1 [Example 25, (S)—N-(2-Fluoro-4-(morpholin-2-yl)phenyl)-6-(2,2,2-trifluoroethoxy)pyrazine-2-carboxamide]
Ki [1]: 0.044 µM
Ki [2]: 0.0122 µM

O=C(Nc1ccc([C@H]2CNCCO2)c(F)c1)c1cncc(OCC(F)(F)F)n1 [Example 26, (S)—N-(3-Fluoro-4-(morpholin-2-yl)phenyl)-6-(2,2,2-trifluoroethoxy)pyrazine-2-carboxamide]
Ki [1]: 0.0167 µM
Ki [2]: 0.0032 µM

O=C(Nc1ccc([C@@H]2CNCCO2)cc1F)c1cnc(OCC(F)(F)F)cn1 [Example 27, (R)—N-(2-Fluoro-4-(morpholin-2-yl)phenyl)-5-(2,2,2-trifluoroethoxy)pyrazine-2-carboxamide]
Ki [1]: 0.0059 µM
Ki [2]: 0.0183 µM

O=C(Nc1ccc([C@@H]2CNCCO2)c(F)c1)c1cnc(OCC(F)(F)F)cn1 [Example 28, (R)—N-(3-Fluoro-4-(morpholin-2-yl)phenyl)-5-(2,2,2-trifluoroethoxy)pyrazine-2-carboxamide]
Ki [1]: 0.0053 µM
Ki [2]: 0.0037 µM

O=C(Nc1ccc([C@@H]2CNCCO2)cc1F)c1cncc(OCC(F)(F)F)n1 [Example 29, (R)—N-(2-Fluoro-4-(morpholin-2-yl)phenyl)-6-(2,2,2-trifluoroethoxy)pyrazine-2-carboxamide]
Ki [1]: 0.0447 µM
Ki [2]: 0.0053 µM

O=C(Nc1ccc([C@@H]2CNCCO2)c(F)c1)c1cncc(OCC(F)(F)F)n1 [Example 30, (R)—N-(3-Fluoro-4-(morpholin-2-yl)phenyl)-6-(2,2,2-trifluoroethoxy)pyrazine-2-carboxamide]
Ki [1]: 0.0292 µM
Ki [2]: 0.0035 µM

CCN(C[C@H]1COC(N)=N1)c1ccccc1 [^3[H]—(S)-4-[(ethyl-phenyl-amino)-methyl]-4,5-dihydro-oxazol-2-ylamine, reference compound]
pKd ([1]; mouse TAAR1 membranes, saturation curve, usual value, read-out: dissociation constant (Kd) of the radioligand): ~9.15
pKd ([2]; rat TAAR1 membranes, saturation curve, usual value, read-out: dissociation constant (Kd) of the radioligand): ~8.64
